Measurements as given in US20260116921A1, “PEPTIDE INHIBITORS OF INTERLEUKIN-23 RECEPTOR AND THEIR USE TO TREAT INFLAMMATORY DISEASES” (priority 2018, published 2026).
Like-named read-outs stand apart in the source and are kept apart here.

Legend:
[1] = Stability in simulated gastric fluid (SGF); format: in vitro ADME; conditions: pig (pepsin), simulated gastric fluid (SGF) with porcine pepsin, pH=2, 37° C., 20 μM peptide, read-out: SGF t½ (converted)
Protocol: SGF was prepared by adding 20 mg NaCl, 32 mg porcine pepsin (MP Biochemicals, catalog 02102599), and 70 μl HCl to 10 ml water (final pH=2). Aliquots of SGF (0.5 ml each) were pre-warmed at 37° C. To start the reaction, 1 μl of peptide stock solution (10 mM in DMSO) was added to 0.5 ml SGF and thoroughly mixed such that the final peptide concentration was 20 μM. The reactions were incubated at 37° C. with gentle shaking. At each time point (0, 15, 30, 60 min) 50 μl aliquots were removed and added to 200 ul acetonitrile containing 0.1% formic acid to quench the reaction. Samples are stored at 4° C. until the end of the experiment and centrifuged at 10,000 rpm for 5 minutes. Aliquots of the supernatant were removed, diluted 1:1 into distilled water containing internal standard, and analyzed by LCMS/MS. Percent remaining at each timepoint was calculated based on the peak area response ratio of test to compound to internal standard. Time 0 was set to 100%, and all later timepoints were calculated relative to time 0. Half-lives were calculated by fitting to a first-order exponential decay equation using GraphPad.

IL-23R = molecular target: T1, IL-23R (Homo sapiens, UniProt Q5VWK5); assay: DB cells IL23R pSTAT3 cell assay (pStat3 HTRF); format: cell-based
T1 sequence (Q5VWK5 24-629): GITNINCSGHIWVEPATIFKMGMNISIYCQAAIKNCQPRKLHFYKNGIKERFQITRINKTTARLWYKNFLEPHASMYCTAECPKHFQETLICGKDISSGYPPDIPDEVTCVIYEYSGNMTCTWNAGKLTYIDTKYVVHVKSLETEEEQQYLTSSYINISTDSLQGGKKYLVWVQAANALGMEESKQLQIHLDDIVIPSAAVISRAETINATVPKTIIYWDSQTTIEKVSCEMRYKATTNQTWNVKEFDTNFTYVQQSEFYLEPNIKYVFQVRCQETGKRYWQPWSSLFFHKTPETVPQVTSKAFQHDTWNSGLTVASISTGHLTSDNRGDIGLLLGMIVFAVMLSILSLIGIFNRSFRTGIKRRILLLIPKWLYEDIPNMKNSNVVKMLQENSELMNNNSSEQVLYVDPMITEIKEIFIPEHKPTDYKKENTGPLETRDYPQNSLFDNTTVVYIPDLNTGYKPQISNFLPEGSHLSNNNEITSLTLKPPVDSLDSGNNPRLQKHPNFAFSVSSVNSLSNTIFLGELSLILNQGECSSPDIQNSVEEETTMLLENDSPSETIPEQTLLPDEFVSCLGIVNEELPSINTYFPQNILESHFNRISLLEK
Method in brief: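 DB cells (5×10E5/well, RPMI-1640 + 10% FBS) stimulated with 0.5 nM final IL-23 plus serially diluted test peptides for 30 min at 37 °C, 5% CO2. Phospho-STAT3 (Tyr705) in lysates measured by HTRF using a two-plate protocol.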

in vitro [2] = conditions: cynomolgus monkey, 20% fecal homogenate (supernatant), anaerobic, pH 6.8
Protocol: Fecal homogenate (20%) was prepared by adding 4 mL of growth medium (1 liter contains 2 g peptone water powder, 2 g yeast extract, 0.1 g NaCl, 0.04 g KH2PO4, 0.01 g CaCl2·6H2O, 0.01 g MgSO4·7H2O, 2 mL Tween 80, 0.5 g bile salts, 0.5 g L-cysteine HCl, 2 g NaHCO3, and 10 μL Vitamin K, pH adjusted to 6.8, and sterilized by filtration through a 0.22 μm filter) to every gram of feces (pooled freshly collected human or cynomolgus monkey feces). The suspension was vortexed to break up large clumps, and homogenized using a bead mill homogenizer. Centrifuged the homogenate at 2800×g for 15 min. The supernatant is taken out and used for incubations. DMSO stocks (10 mM) were first prepared for the test compounds. Incubations were performed in an anaerobic chamber conditioned at 37° C. Aliquots of the DMSO solutions were dosed into 1.0 mL aliquots of 20% fecal homogenate, which are pre-warmed to 37° C. The final test compound concentration was 20 μM. At each timepoint (0, 20 min, 1, 3, 6, or 24 hours), 100 μL aliquot of each incubation mixture is taken out and added to separate tubes containing 300 μL of 50% acetonitrile/50% methanol and an internal standard to terminate the reaction. Samples were taken out of the anaerobic chamber and stored at 4° C. until the end of the experiment. After the final timepoint is sampled, the tubes were mixed and then centrifuged at 3,000 rpm for 10 minutes. Aliquots of the supernatant were removed, diluted 1:1 into distilled water containing 0.1% formic acid, and analyzed by LC/MS/MS. Percent remaining at each timepoint was calculated based on the peak area response ratio of test to compound to internal standard. Time 0 was set to 100%, and all later timepoints were calculated relative to time 0. Half-lives were calculated by fitting to a first-order exponential decay equation using Graphpad or Excel.

in vitro [3] = conditions: human, 20% fecal homogenate (supernatant), anaerobic, pH 6.8
in vitro [4] = format: in vitro ADME; set-up: half-life: dose or concentration left out as unconfirmed; conditions: pH 6.8, 37° C., § matrix is 100 fold dilution of standard SIF concentration; for SIF t½: simulated intestinal fluid, pancreatin
Protocol: SIF was prepared by adding 6.8 g of monobasic potassium phosphate and 10.0 g of pancreatin to 1.0 L of water. After dissolution, the pH was adjusted to 6.8 using NaOH. DMSO stocks (2 mM) were first prepared for the test compounds. Aliquots of the DMSO solutions were dosed into 6 individual tubes, each containing 0.5 mL of SIF, which is pre-warmed to 37° C. The final test compound concentration was 20 M. The vials were kept in a benchtop Thermomixer® for the duration of the experiment. At each timepoint (0, 5, 10, 20, 40, 60, or 360 minutes or 24 hours), 1.0 mL of acetonitrile containing 1% formic acid was added to one vial to terminate the reaction. Samples were stored at 4° C. until the end of the experiment. After the final timepoint is sampled, the tubes were mixed and then centrifuged at 3,000 rpm for 10 minutes. Aliquots of the supernatant were removed, diluted 1:1 into distilled water containing internal standard, and analyzed by LCMS/MS. Percent remaining at each timepoint was calculated based on the peak area response ratio of test to compound to internal standard. Time 0 was set to 100%, and all later timepoints were calculated relative to time 0. Half-lives were calculated by fitting to a first-order exponential decay equation using Graphpad.

NK cells = assay: NK cell based assay (IL-23/IL-18-induced IFNγ, Quantikine ELISA); conditions: human primary NK cells, IL-23 at EC50 to EC75 + IL-18 10 ng/mL, IFNγ after 20 to 24 hours
Method in brief: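 Human NK cells were negatively selected from healthy-donor peripheral blood and expanded for 7 days in FBS-supplemented RPMI 1640 with IL-2 (25 ng/mL). IFNγ in the supernatant was quantified by ELISA after 20 to 24 hours.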

in vitro [5] = conditions: both, SD, rat, plasma (EDTA)
Protocol: Peptides of interest (20 μM) were incubated with pre-warmed rat plasma (SD rat, mixed gender pooled, EDTA, filtered through 0.22 μm, BioreclamationIVT) at 37° C. […] Quenched samples were stored at 4° C. until the end of the experiment and centrifuged at 4,000 rpm for 10 minutes. The supernatant were diluted 1:1 with deionized water and analyzed using LC-MS. Percentage remaining at each time point was calculated based on the peak area ratio (analyte over internal standard) relative to the initial level at time zero. Half-lives were calculated by fitting to a first-order exponential decay equation using GraphPad.

[6] = Table E3, DB cells, IL-23 0.5 nM, 30 minutes at 37° C., read-out: pStat3 HTRF (IC50)

SMILES	half-life at 20 μM [1] [h]	IC50 (IL-23R) [nM]	half-life at 20 μM (in vitro [2]) [h]	half-life at 20 μM (in vitro [3]) [h]	SIF t½ (in vitro [4]) [h]	IC50 (NK cells) [nM]	half-life at 20 μM (in vitro [5]) [h]	half-life (in vitro [4]; simulated intestinal fluid (SIF) with pancreatin, read-out: SIF t½ (converted)) [h]	IC50 (IL-23R; [6]) [nM]
CC(=O)NCCCC[C@H](NC(=O)[C@](C)(CC(C)C)NC(=O)[C@H](Cc1ccc2ccccc2c1)NC(=O)[C@H](Cc1ccc(OCCN)cc1)NC(=O)[C@H]1NC(=O)[C@H](CCC(N)=O)NC(=O)[C@H](Cc2c[nH]c3cc(C)ccc23)NC(=O)[C@H]([C@@H](C)O)NC(=O)[C@H](CC(N)=O)NC(=O)[C@@H](NC(C)=O)C(C)(C)SSC1(C)C)C(=O)N[C@@H](CC(N)=O)C(=O)N[C@@H](CC(N)=O)C(N)=O [compound 5]	12	1 to 10	2	6	24	–	–	–	–
CC(=O)NCCCC[C@H](NC(=O)[C@](C)(CC(C)C)NC(=O)[C@H](Cc1ccc2ccccc2c1)NC(=O)[C@H](Cc1ccc(OCCN)cc1)NC(=O)[C@H]1NC(=O)[C@H](CCC(N)=O)NC(=O)[C@H](Cc2c[nH]c3c(C)cccc23)NC(=O)[C@H]([C@@H](C)O)NC(=O)[C@H](CC(N)=O)NC(=O)[C@@H](NC(C)=O)C(C)(C)SSC1(C)C)C(=O)N[C@@H](CC(N)=O)C(=O)N[C@@H](CC(N)=O)C(N)=O [compound 6]	12	< 1	4	17	24	< 10	< 1	–	–
CC(=O)N[C@H]1CCSC[C@@H](C(=O)N[C@@H](Cc2ccc(OCCN)cc2)C(=O)N[C@@H](Cc2ccc3ccccc3c2)C(=O)NC2(C(=O)N[C@@H](CCC(=O)O)C(=O)N[C@@H](CC(N)=O)C(=O)N[C@@H](CC(N)=O)C(N)=O)CCOCC2)NC(=O)[C@H](CCC(N)=O)NC(=O)[C@H](Cc2c[nH]c3c(C)cccc23)NC(=O)[C@H]([C@@H](C)O)NC(=O)[C@H](CCC(N)=O)NC1=O [compound 28]	3	< 1	5	1	24	–	–	–	–
CC(=O)NCCCC[C@H](NC(=O)C1(NC(=O)[C@H](Cc2ccc3ccccc3c2)NC(=O)[C@H](Cc2ccc(OCCN)cc2)NC(=O)[C@@H]2CSCC[C@H](NC(=O)[C@@H](CCCNC(=N)N)NC(C)=O)C(=O)N[C@@H](CCC(N)=O)C(=O)N[C@@H]([C@@H](C)O)C(=O)N[C@@H](Cc3c[nH]c4c(C)cccc34)C(=O)N[C@@H](CCC(N)=O)C(=O)N2)CCOCC1)C(=O)N[C@@H](CC(N)=O)C(=O)N[C@@H](CC(N)=O)C(N)=O [compound 29]	1	< 1	–	–	–	–	3	21	–
CC(=O)NCCCC[C@H](NC(=O)[C@](C)(CC(C)C)NC(=O)[C@H](Cc1ccc2ccccc2c1)NC(=O)[C@H](Cc1ccc(OCCN)cc1)NC(=O)[C@H]1NC(=O)[C@H](CCC(N)=O)NC(=O)[C@H](Cc2c[nH]c3c(C)cccc23)NC(=O)[C@H]([C@@H](C)O)NC(=O)[C@H](CC(N)=O)NC(=O)[C@@H](NC(C)=O)C(C)(C)SSC1(C)C)C(=O)N[C@@H](CC(N)=O)C(=O)NCCC(N)=O [compound 201]	14	–	19	> 24	–	< 10	< 0.3	–	< 1
CC(=O)NCCCC[C@H](NC(=O)[C@](C)(CC(C)C)NC(=O)[C@H](Cc1ccc2ccccc2c1)NC(=O)[C@H](Cc1ccc(OCCN)cc1)NC(=O)[C@H]1NC(=O)[C@H](CCC(N)=O)NC(=O)[C@H](Cc2c[nH]c3c(C)cccc23)NC(=O)[C@H]([C@@H](C)O)NC(=O)[C@H](CC(N)=O)NC(=O)[C@@H](NC(C)=O)C(C)(C)SSC1(C)C)C(=O)N[C@@H](CO)C(=O)NCCC(N)=O [compound 221]	9	–	> 24	> 24	–	< 10	2	–	1 to 10
